The values that follow come from patent EP1276722B1, “NAPHTHAMIDINE UROKINASE INHIBITORS” (ABBOTT LABORATORIES, priority 2000, dated 2001).

Molecules are shown by their SMILES.

In one experiment the target is T1, urokinase enzyme Abbokinase (Homo sapiens, UniProt P00749).
T1 construct: purchased Abbott Laboratories, Abbott Park, IL
In words: Inhibition of urokinase on chromogenic substrate S-2444. In kind it is biochemical.
Conditions: not given
`COC/C=C/c1cc(C2CC2c2ccc3c(c2)C(C(C)C)N(C)CC3)cc2ccc(C(=N)N)cc12` (stereo not drawn) [Example 5, 6-(2-(1-isopropyl-2-methyl-1,2,3,4-tetrahydro-7-isoquinolinyl)cyclopropyl)-8-((1E)-3-methoxy-1-propenyl)-2-naphthalenecarboximidamide] had a Ki of 21 nM.

Staying with this experiment, now noted: read-out: Ki.
As to `CC(C)C1=NCCc2ccc(C3CC3c3cc(-c4ccoc4)c4cc(C(=N)N)ccc4c3)cc21` (stereo not drawn) [Example 1, 8-(3-furyl)-6-(2-(1-isopropyl-3,4-dihydro-7-isoquinolinyl)cyclopropyl)-2-naphthalenecarboximidamide], the Ki turned out to be 41 nM.
On the same count and under the same terms, with `CC(C)c1nccc2ccc(C3CC3c3ccc4cc(C(=N)N)ccc4c3)cc12` (stereo not drawn) [Example 2, 6-(2-(1-isopropyl-7-isoquinolinyl)cyclopropyl)-2-naphthalenecarboximidamide] the figure was 480 nM; with `CC(C)C1c2cc(C3CC3c3cc(-c4ccoc4)c4cc(C(=N)N)ccc4c3)ccc2CCN1C` (stereo not drawn) [Example 3, 8-(3-furyl)-6-(2-(1-isopropyl-2-methyl-1,2,3,4-tetrahydro-7-isoquinolinyl)cyclopropyl)-2-naphthalenecarboximidamide], 25 nM; with `COCC=Cc1cc(C2CC2c2ccc3c(c2)C(C(C)C)=NCC3)cc2ccc(C(=N)N)cc12` (stereo not drawn) [Example 4, 6-(2-(1-isopropyl-3,4-dihydro-7-isoquinolinyl)cyclopropyl)-8-(3-methoxy-1-propenyl)-2-naphthalenecarboximidamide], 59 nM.
On the same count and under the same terms, under `CC(C)C1=NCCc2ccc(C3CC3c3cc(C4CCOC4)c4cc(C(=N)N)ccc4c3)cc21` (stereo not drawn) [Example 7, 6-(2-(1-isopropyl-3,4-dihydro-7-isoquinolinyl)cyclopropyl)-8-tetrahydro-3-furanyl-2-naphthalenecarboximidamide] stands 45 nM; under `CC(C)/C=C/c1cc(C2CC2c2ccc3c(c2)C(C(C)C)=NCC3)cc2ccc(C(=N)N)cc12` (stereo not drawn) [Example 8, 6-(2-(1-isopropyl-3,4-dihydro-7-isoquinolinyl)cyclopropyl)-8-((1E)-3-methyl-1-butenyl)-2-naphthalenecarboximidamide], 21 nM.
Consider `N=C(N)c1ccc2cc(C3CC3c3ccc4c(c3)C(C3CCCCC3)=NCC4)ccc2c1` (stereo not drawn) [Example 9, 6-(2-(1-cyclohexyl-3,4-dihydro-7-isoquinolinyl)cyclopropyl)-2-naphthalenecarboximidamide], for which the Ki was found to be 50 nM.
Still for that read-out and setting: with `N=C(N)c1ccc2cc(C3CC3c3ccc4c(c3)C(c3ccccc3)=NCC4)ccc2c1` (stereo not drawn) [Example 10, 6-(2-(1-phenyl-3,4-dihydro-7-isoquinolinyl)cyclopropyl)-2-naphthalenecarboximidamide] the figure was 142 nM.
For `CCCC1c2cc(C3CC3c3ccc4cc(C(=N)N)ccc4c3)ccc2CCN1C` (stereo not drawn) [Example 11, 6-(2-(2-methyl-1-propyl-1,2,3,4-tetrahydro-7-isoquinolinyl)cyclopropyl)-2-naphthalenecarboximidamide], the Ki was found to be 128 nM.
On the same count and under the same terms, with `CC(C)C1NCCc2ccc(C=Cc3ccc4cc(C(=N)N)ccc4c3)cc21` (stereo not drawn) [Example 13, 6-(2-(1-isopropyl-1,2,3,4-tetrahydro-7-isoquinolinyl)ethenyl)-2-naphthalenecarboximidamide] the figure was 260 nM; with `CC(=O)N1CCc2ccc(C3CC3c3ccc4cc(C(=N)N)ccc4c3)cc2C1C(C)C` (stereo not drawn) [Example 15, 6-(2-(2-acetyl-1-isopropyl-1,2,3,4-tetrahydro-7-isoquinolinyl)cyclopropyl)-2-naphthalenecarboximidamide], 160 nM; with `CC(C)C1c2cc(C=Cc3ccc4cc(C(=N)N)ccc4c3)ccc2CCN1C` (stereo not drawn) [Example 16, 6-(2-(1-isopropyl-2-methyl-1,2,3,4-tetrahydro-7-isoquinolinyl)ethenyl)-2-naphthalenecarboximidamide], 120 nM.
On the same count and under the same terms, under `COC(=O)N1CCc2ccc(C=Cc3ccc4cc(C(=N)N)ccc4c3)cc2C1C(C)C` (stereo not drawn) [Example 17, methyl 7-(2-(6-(amino(imino)methyl)-2-naphthyl)ethenyl)-1-isopropyl-3,4-dihydro-2(1H)-isoquinolinecarboxylate] stands 250 nM; under `CC(C)C1c2cc(C3CC3c3ccc4cc(C(=N)N)ccc4c3)ccc2CCN1Cc1ccccc1` (stereo not drawn) [Example 19, 6-(2-(2-benzyl-1-isopropyl-1,2,3,4-tetrahydro-7-isoquinolinyl)cyclopropyl)-2-naphthalenecarboximidamide], 144 nM.
Consider `CC(C)C1NCCc2ccc(C3CC3c3ccc4cc(C(=N)N)ccc4c3)cc21` (stereo not drawn) [Example 20, 6-(2-(1-isopropyl-1,2,3,4-tetrahydro-7-isoquinolinyl)cyclopropyl)-2-naphthalenecarboximidamide], for which the Ki is 84 nM.
The same measure, in the same setting: with `CC(C)C1c2cc(C3CC3c3ccc4cc(C(=N)N)ccc4c3)ccc2CCN1Cc1cccnc1` (stereo not drawn) [Example 21, 6-(2-(1-isopropyl-2-(3-pyridinylmethyl)-1,2,3,4-tetrahydro-7-isoquinolinyl)cyclopropyl)-2-naphthalenecarboximidamide] the figure was 84 nM; with `CC(C)C1=NCCc2ccc(C=Cc3cc(Br)c4cc(C(=N)N)ccc4c3)cc21` [Example 22, 8-bromo-6-(2-(1-isopropyl-3,4-dihydro-7-isoquinolinyl)ethenyl)-2-naphthalenecarboximidamide], 291 nM; with `CC(C)C1c2cc(C3CC3c3ccc4cc(C(=N)N)ccc4c3)ccc2CCN1CC1CC1` (stereo not drawn) [Example 23, 6-(2-(2-(cyclopropylmethyl)-1-isopropyl-1,2,3,4-tetrahydro-7-isoquinolinyl)cyclopropyl)-2-naphthalenecarboximidamide], 58 nM.
For `CCN1CCc2ccc(C3CC3c3ccc4cc(C(=N)N)ccc4c3)cc2C1C(C)C` (stereo not drawn) [Example 24, 6-(2-(2-ethyl-1-isopropyl-1,2,3,4-tetrahydro-7-isoquinolinyl)cyclopropyl)-2-naphthalenecarboximidamide], the Ki worked out at 54 nM.
Same read-out and setting: under `C=CCN1CCc2ccc(C3CC3c3ccc4cc(C(=N)N)ccc4c3)cc2C1C(C)C` (stereo not drawn) [Example 25, 6-(2-(2-allyl-1-isopropyl-1,2,3,4-tetrahydro-7-isoquinolinyl)cyclopropyl)-2-naphthalenecarboximidamide] stands 63 nM; under `CC(C)C1c2cc(C3CC3c3ccc4cc(C(=N)N)ccc4c3)ccc2CCN1CCO` (stereo not drawn) [Example 26, 6-(2-(2-(2-hydroxyethyl)-1-isopropyl-1,2,3,4-tetrahydro-7-isoquinolinyl)cyclopropyl)-2-naphthalenecarboximidamide], 48 nM; under `CC(C)C1c2cc(C3CC3c3ccc4cc(C(=N)N)ccc4c3)ccc2CCN1C(C)C` (stereo not drawn) [Example 27, 6-(2-(1,2-diisopropyl-1,2,3,4-tetrahydro-7-isoquinolinyl)cyclopropyl)-2-naphthalenecarboximidamide], 130 nM.
On the same count and under the same terms, under `CC1c2cc(C3CC3c3ccc4cc(C(=N)N)ccc4c3)ccc2CCN1C` (stereo not drawn) [Example 30, 6-(2-(1,2-dimethyl-1,2,3,4-tetrahydro-7-isoquinolinyl)cyclopropyl)-2-naphthalenecarboximidamide] stands 278 nM.
The same measure, in the same setting: under `CCC1(CC)CN=C(C(C)C)c2ccc(C3CC3c3ccc4cc(C(=N)N)ccc4c3)cc21` (stereo not drawn) [Example 31, 6-(2-(4,4-diethyl-1-isopropyl-3,4-dihydro-6-isoquinolinyl)cyclopropyl)-2-naphthalenecarboximidamide] stands 350 nM; under `CCC1(CC)CN(C)C(C(C)C)c2ccc(C3CC3c3ccc4cc(C(=N)N)ccc4c3)cc21` (stereo not drawn) [Example 32, 6-(2-(4,4-diethyl-1-isopropyl-2-methyl-1,2,3,4-tetrahydro-6-isoquinolinyl)cyclopropyl)-2-naphthalenecarboximidamide], 350 nM; under `CC(C)C1c2cc(C3CC3c3ccc4cc(C(=N)N)ccc4c3)ccc2CCN1CC(F)(F)F` (stereo not drawn) [Example 33, 6-(2-(1-isopropyl-2-(2,2,2-trifluoroethyl)-1,2,3,4-tetrahydro-7-isoquinolinyl)cyclopropyl)-2-naphthalenecarboximidamide], 1440 nM.
For `CC(C)C1=NCCc2ccc(C3CC3c3cc(/C=C/C(C)(C)C)c4cc(C(=N)N)ccc4c3)cc21` (stereo not drawn) [Example 34, 8-((1E)-3,3-dimethyl-1-butenyl)-6-(2-(1-isopropyl-3,4-dihydro-7-isoquinolinyl)cyclopropyl)-2-naphthalenecarboximidamide], the inhibition constant Ki stood at 51 nM.
On the same count and under the same terms, with `CC(C)C1=NCCc2ccc(C3CC3c3cc(Br)c4cc(C(=N)N)ccc4c3)cc21` (stereo not drawn) [Example 35, 8-bromo-6-(2-(1-isopropyl-3,4-dihydro-7-isoquinolinyl)cyclopropyl)-2-naphthalenecarboximidamide] the figure was 128 nM; with `CC(C)C1c2cc(C3CC3c3cc(Br)c4cc(C(=N)N)ccc4c3)ccc2CCN1C` (stereo not drawn) [Example 36, 8-bromo-6-(2-(1-isopropyl-2-methyl-1,2,3,4-tetrahydro-7-isoquinolinyl)cyclopropyl)-2-naphthalenecarboximidamide], 54 nM.
The same measure, in the same setting: with `CC(C)/C=C/c1cc(C2CC2c2ccc3c(c2)C(C(C)C)N(C)CC3)cc2ccc(C(=N)N)cc12` (stereo not drawn) [Example 37, 6-(2-(1-isopropyl-2-methyl-1,2,3,4-tetrahydro-7-isoquinolinyl)cyclopropyl)-8-((1E)-3-methyl-1-butenyl)-2-naphthalenecarboximidamide] the figure was 10 nM; with `C=C(C)/C=C/c1cc(C2CC2c2ccc3c(c2)C(C(C)C)N(C)CC3)cc2ccc(C(=N)N)cc12` (stereo not drawn) [Example 38, 6-(2-(1-isopropyl-2-methyl-1,2,3,4-tetrahydro-7-isoquinolinyl)cyclopropyl)-8-((1E)-3-methyl-1,3-butadienyl)-2-naphthalenecarboximidamide], 40 nM.
Turning to `CC(C)C1c2cc(C3CC3c3cc(C4CC4)c4cc(C(=N)N)ccc4c3)ccc2CCN1C` (stereo not drawn) [Example 39, 8-cyclopropyl-6-(2-(1-isopropyl-2-methyl-1,2,3,4-tetrahydro-7-isoquinolinyl)cyclopropyl)-2-naphthalenecarboximidamide], the Ki turned out to be 37 nM.

As a reminder, the Ki is the dissociation constant of the complex between target and ligand, obtained from inhibition or displacement.
